Data on 24 compounds can be found in patent US4350697A, “Antidepressant and neuroleptic benzothiopyrano [2,3-c]-pyridines” (Roussel Uclaf, priority 1980, dated 1982).

Counter-ions that a name gives are not always drawn.

One test concerns the target α-noradrenergic receptor. In words: [3H] WB-4101 receptor binding displacement, rat cortical membranes (test C). Particulars: [3H] WB-4101 0.25 nM, 25° C., 15 minutes.
The subject of test [1] is hypothermia induced by apomorphine. The experiment in a line: Reversal of apomorphine hypothermia in mice (test E). It is filed as in vivo. Particulars: Mus musculus, ip; male CD/l mice, test drug i.p. 30 minutes before apomorphine hydrochloride 16 mg/kg s.c.; rectal temperature 30 minutes later; read-out: ED50 for the reversal of the hypothermia induced by apomorphine HCl in mice (test E). The protocol: D. Reversal of apomorphine hypothermia in mice
Whereas the reversal of the hypothermia induced in mice by low doses of apomorphine is a characteristic of classical neuroleptic agents, the hypothermia induced by high doses of this agent is specifically reversed by antidepressant drugs [Puech et al., In `Advances in Pharmacology and Therapeutics Vol., 5` ed. Dumont, c. Pergamon p. 171-176 (1979)]. Groups of 10 male CD/l mice (16-22 g) were dosed with vehicle or test drug intraperitoneally 30 minutes prior to the subcutaneously injection of apomorphine hydrochloride at 16 mg/kg. The rectal temperatures were recorded 30 minutes later using a rectal thermometer with digital readout.

Test [2] concerns the target neuroleptic receptors (frontal cortex membranes, major serotonergic component). In words: [3H] spiroperidol receptor binding displacement on frontal cortex membranes (test A). The conditions noted are these: [3H] spiroperidol 0.19 nM, rat frontal cortex membranes, 37° C., 10 minutes. From the text:
A. [^3 H] Spiroperidol binding to neuroleptic receptors in membranes prepared from the striatum and frontal cortex of rats
The binding of [^3 H] spiroperidol to frontal cortex membranes appears to entail a major serotonergic component, whereas in striatal membranes the binding is predominantly dopaminergic [Leysen et al, Nature Vol. 272 (1978) p. 168-171] The ability of drugs to displace this radioligand from the frontal cortical receptors matches their activity in other models of serotonergic function, both for agonists and antagonists. Likewise, in striatal membranes, such activities predict the antidopaminergic action of neuroleptic drugs.
[Phenyl-4(n)-^3 H] spiroperidol (Radiochemical Centre, TRK 570 21 Ci/mmol was used as the labelled ligand supplied as a 250 μCi/250 μl solution in ethanol and this solution was diluted 3.2/10,000 in assay buffer and 0.1 ml of this was added to 2 ml of binding assay.
=0.19 nM [^3 H] spiroperidol
The assay buffer was a modified 50 mM Tris HCl buffer with a pH of 7.6 and containing 120 mM of sodium chloride, 5 mM of potassium chloride, 1 mM of magnesium chloride, 2 mM of calcium chloride, 10 μM of pargyline and 0.1% of ascorbic acid.
The membrane preparation involved dissecting the frontal cortices or striata from 4 male CFHB rats according to J. Glowinski et al [Eur. J. Pharmacol., Vol. 49, (1978), P. 201-202]. The frontal cortex was taken as that cortical tissue in `C`, dorsal to a horizontal reference line passing through the point where the olfactory bulbs join the frontal cortex. The animals were killed by cervical dislocation and the dissected tissue was homogenized in 20 volumes of ice cold 0.32 M sucrose with a Teflon/glass homogeniser. The homogenate was centrifuged at 1000 g for 10 minutes and the resulting supernatant was recentrifuged at 30,000 g for 30 minutes. The supernatant was discarded and the pellet was resuspended by homogenization in 30 volumes of ice cold assay buffer.
Non-specific binding was accounted for by the inclusion of 1 μM (+) butaclamol in blank binding assays and this required a stock solution of 20 μM in distilled water. Solutions of displacing compounds were prepared at 20x final assay concentration in distilled water.
Binding assays of 1.3 ml assay buffer, 0.5 ml membrane suspension, 0.1 ml distilled H2 O or drug solutions and 0.1 ml [^3 H] spiroperidol dilution were made up in ice with the [^3 H] spiroperidol being added last and incubated at 37° C. for 10 minutes. The bound ligand was separated by filtration through Whatman GF/C filters under vacuum followed by 2×10 ml rinses of ice cold assay buffer. The filters were dried at 80° C. and counted in 5 ml volumes of ECONOFLUOR (NEN). All binding assays, controls, blanks and each displacer concentration were run in triplicate. The [^3 H] spiroperidol receptor binding displacement results on frontal cortex membranes (test A) and on striatal membranes (test B) are given in Table III below and the results are expressed as IC50 (nM).

Test [3] addresses Muscarinic chloinergic receptor. The class given is binding. Particulars: [3H] QNB 0.3 nM, rat forebrain membranes, 25° C., 1 hour; read-out: IC50 test D.

As usually defined, the IC50 is the point on the concentration scale where inhibition reaches its midpoint. One may read the ED50 as the dose that gives a 50% effect, or the effect in half of the subjects. For the compound `Cc1ccc(C2=C3CCN(C)CC3Sc3ccccc32)cc1` (stereo not drawn) [Example 3, 2-methyl-5-(4-tolyl)-1,3,4,10a-tetrahydro-2H[1]benzothiopyrano[2,3-c]pyridine], the IC50 at α-noradrenergic receptor amounted to 29 nM; in test [2], 25 nM; in test [3], 73600 nM. In addition, in test [1], the ED50 came to 20 mg/kg.

Turning to `CN1CCC2=C(c3ccccc3)c3cc(Cl)ccc3SC2C1` (stereo not drawn) [Example 13], the half-maximal inhibitory concentration (IC50) on α-noradrenergic receptor came out at 355 nM; in test [2], 1480 nM; in test [3] it was 47900 nM. The ED50 in test [1] is greater than 40 mg/kg.

Consider `CN1CCC2=C(c3ccccc3)c3ccccc3SC2C1.Cl` (stereo not drawn) [Example 1, 2-methyl-5-phenyl-1,3,4,10a-tetrahydro-2H-[1]-benzothiopyrano[2,3-c]pyridine hydrochloride], for which the half-maximal inhibitory concentration (IC50) stood at 394 nM on α-noradrenergic receptor, 250 nM in test [2] and 14000 nM in test [3]. In addition, the ED50 in test [1] amounted to 30 mg/kg.

On to `Cc1ccc(C2=C3CCN(C)CC3Sc3ccccc32)c(C)c1` (stereo not drawn) [Example 19, 2-methyl-5-(2,4-dimethylphenyl)-1,3,4,10a-tetrahydro-2H-[1]benzothiopyrano[2,3-c]pyridine hydrochloride], for which the concentration for half-maximal inhibition (IC50) was 23 nM at α-noradrenergic receptor, 32 nM in test [2] and 42700 nM in test [3].

Consider `Cc1ccc2c(c1)C(c1ccccc1)=C1CCN(C)CC1S2` (stereo not drawn) [Example 22], for which the 50% inhibitory concentration (IC50) on α-noradrenergic receptor is 12500 nM; in test [2] it was 2450 nM; in test [3], greater than 100000 nM. Also, the median effective dose (ED50) in test [1] was greater than 100 mg/kg.

In the case of `CN1CCC2=C(c3ccc(N(C)C)cc3)c3ccccc3SC2C1` (stereo not drawn) [Example 6, 2-methyl-5-(4-dimethylaminophenyl)-1,3,4,10a-tetrahydro-2H[1]benzothiopyrano[2,3-c]pyridine], the concentration for half-maximal inhibition (IC50) is 100 nM at α-noradrenergic receptor, 112 nM in test [2] and greater than 100000 nM in test [3].

With `CCCOc1ccc(C2=C3CCN(C)CC3Sc3ccccc32)cc1` (stereo not drawn) [Example 11], the IC50 was 6760 nM at α-noradrenergic receptor, 1250 nM in test [2] and greater than 100000 nM in test [3]. Also, the ED50 in test [1] is 22 mg/kg.

For `Cc1ccccc1C1=C2CCN(C)CC2Sc2ccccc21` (stereo not drawn) [Example 10], the half-maximal inhibitory concentration (IC50) stood at 813 nM at α-noradrenergic receptor, 105 nM in test [2] and 8130 nM in test [3]. Further, the ED50 in test [1] is 80 mg/kg.

As for `CN1CCC2=C(c3ccc(Cl)c(Cl)c3)c3ccccc3SC2C1` (stereo not drawn) [Example 8], the IC50 at α-noradrenergic receptor was 631 nM; in test [2] it was 537 nM; in test [3], greater than 100000 nM.

On to `COc1ccc(C2=C3CCN(C)CC3Sc3ccccc32)cc1` (stereo not drawn) [Example 4], for which the IC50 on α-noradrenergic receptor is 120 nM; in test [2], 131 nM; in test [3], 62000 nM. Further, the ED50 in test [1] came out at 15 mg/kg.

Take `Cc1cccc(C2=C3CCN(C)CC3Sc3ccccc32)c1` (stereo not drawn) [Example 7]: the IC50 on α-noradrenergic receptor was found to be 813 nM; in test [2], 251 nM; in test [3], 8710 nM. For the same compound, the ED50 in test [1] is greater than 40 mg/kg.

Take `CN1CCC2=C(c3cccc(Cl)c3)c3ccccc3SC2C1` (stereo not drawn) [Example 5]: the half-inhibitory concentration (IC50) is 1950 nM at α-noradrenergic receptor, 427 nM in test [2] and 16200 nM in test [3]. Besides, in test [1], the ED50 was greater than 40 mg/kg.

Take `CCc1ccc(C2=C3CCN(C)CC3Sc3ccccc32)cc1` (stereo not drawn) [Example 9]: the values for the IC50 (at α-noradrenergic receptor; in test [2]; in test [3]) were 59 nM, 50 nM and greater than 100000 nM, respectively. Moreover, in test [1], the median effective dose (ED50) was greater than 40 mg/kg.

For `Cc1cccc(C)c1C1=C2CCN(C)CC2Sc2ccccc21` (stereo not drawn) [Example 23], the concentration for half-maximal inhibition (IC50) on α-noradrenergic receptor came out at 617 nM; in test [2], 331 nM; in test [3], 4370 nM. Besides, the 50% effective dose (ED50) in test [1] is greater than 40 mg/kg.

`CN1CCC2=C(c3ccccc3)c3ccc(Cl)cc3SC2C1` (stereo not drawn) [Example 21]: the IC50 at α-noradrenergic receptor was determined as 3020 nM; in test [2], 1140 nM; in test [3] it was 58900 nM. Further, in test [1], the ED50 was greater than 100 mg/kg.

On to `CN1CCC2=C(c3ccc(N)cc3)c3ccccc3SC2C1.Cl` (stereo not drawn) [Example 15, 5-(4-aminophenyl)-2-methyl-1,3,4,10a-tetrahydro-2H-[1]benzothiopyrano[2,3-c]pyridine hydrochloride], for which the IC50 was 372 nM at α-noradrenergic receptor, 158 nM in test [2] and 7940 nM in test [3]. Moreover, in test [1], the ED50 was 5 mg/kg.

In the case of `Cc1cc(C)c(C2=C3CCN(C)CC3Sc3ccccc32)c(C)c1` (stereo not drawn) [Example 24], the 50% inhibitory concentration (IC50) at α-noradrenergic receptor is 617 nM; in test [2], 308 nM; in test [3], 1180 nM. In addition, in test [1], the ED50 was greater than 40 mg/kg.

With `Cc1cccc2c1SC1CN(C)CCC1=C2c1ccccc1` (stereo not drawn) [Example 18], the IC50 was determined as 794 nM on α-noradrenergic receptor, 174 nM in test [2] and 38900 nM in test [3]. In addition, the ED50 in test [1] is greater than 40 mg/kg.

For the compound `Cc1ccc(C2=C3CCN(C)CC3Sc3ccccc32)cc1C` (stereo not drawn) [Example 14], the IC50 at α-noradrenergic receptor was 502 nM; in test [2], 155 nM; in test [3], greater than 100000 nM. Also, the median effective dose (ED50) in test [1] is 30 mg/kg.

`Cc1ccc2c(c1)SC1CN(C)CCC1=C2c1ccccc1` (stereo not drawn) [Example 16]: the IC50 on α-noradrenergic receptor stood at 1450 nM; in test [2], 708 nM; in test [3] it was 29500 nM.

Regarding `CN1CCC2=C(c3ccc(Cl)cc3)c3ccccc3SC2C1` (stereo not drawn) [Example 2], the IC50 at α-noradrenergic receptor is 692 nM; in test [2], 602 nM; in test [3] it was greater than 100000 nM. Further, the ED50 in test [1] is greater than 40 mg/kg.

In the case of `CCN1CCC2=C(c3ccccc3)c3ccccc3SC2C1` (stereo not drawn) [Example 12], the results for the IC50 (at α-noradrenergic receptor; in test [2]; in test [3]) were 502 nM, 398 nM and 19000 nM, respectively.

Consider `CN1CCC2=C(c3ccccc3)c3cccc(Cl)c3SC2C1` (stereo not drawn) [Example 20], for which the IC50 on α-noradrenergic receptor stood at 1050 nM; in test [2], 304 nM; in test [3] it was 67800 nM.

Turning to `c1ccc(C2=C3CCNCC3Sc3ccccc32)cc1` (stereo not drawn) [Example 17], the IC50 on α-noradrenergic receptor turned out to be 676 nM; in test [2] it was 624 nM; in test [3] it was 19500 nM. Further, in test [1], the ED50 came to 35 mg/kg.
